For test [1], the system named is Human immunodeficiency virus 1. Briefly: Antiviral activity against R5 tropic HIV1 BAL infected in human TZM-bl cells assessed as inhibition of virus-induced cytopathic effect. In kind it is functional, organism-based. The settings on record: for IC50: Human immunodeficiency virus 1, BAL. Background: Protection from cytopathic effect is a common read-out in antiviral testing.

In the next test the test system is HeLa. Briefly: (§1) Inhibition of HIV1 gp41-induced cell-cell fusion between viral envolop expressing human HeLa cells to CD4 receptor expressing TZM-bl cells. The settings on record: Human immunodeficiency virus 1. Format: cell-based.
The nature of test [2]: as §1. Format: cell-based, Human immunodeficiency virus 1.
Test [3] relates to Human immunodeficiency virus 1. Briefly: Antiviral activity against R5 tropic HIV1 HXB2 infected in human TZM-bl cells assessed as inhibition of virus-induced cytopathic effect. Format: functional, organism-based. As to conditions: for IC50: Human immunodeficiency virus 1, HXB2, TZM-bl.
Test [4] has as its system Human immunodeficiency virus 1. Kind of test: Antiviral activity against R5 tropic HIV1 BAL infected in human PBMC cells assessed as concentration at which p24 antigen produced after 7 days by ELISA. In kind it is functional. On the technique in general: ELISA stands for enzyme-linked immunosorbent assay.
The test system of test [5] is Human immunodeficiency virus 1. Briefly: Antiviral activity against R5X4 tropic HIV1 69/7 infected in human TZM-bl cells assessed as inhibition of virus-induced cytopathic effect. Format: functional, organism-based. As to conditions: for IC50: Human immunodeficiency virus 1, 69/7, TZM-bl.
Test [6] has as its system Human immunodeficiency virus 1. Briefly: Antiviral activity against R5 tropic HIV1 HXB2 infected in human PBMC cells assessed as concentration at which p24 antigen produced after 7 days by ELISA. Format: functional.
Test [7] has as its system Human immunodeficiency virus 1. Briefly: Inhibition of HIV1 gp41 fusion peptide at compound to fusion peptide ratio of 5 by fluorimetry.
Test [8] is described as follows: Inhibition of HIV1 gp41 fusion by isothermal titration. Details: species or system Human immunodeficiency virus 1. On the technique in general: Isothermal titration calorimetry measures the heat released or taken up as one component is titrated into another.
Test [9] in a line: Inhibition of HIV1 gp41 fusion by surface plasmon resonance. Details: species or system Human immunodeficiency virus 1.

Peptide text beside a SMILES is read from it.

Usually inhibition stands for the drop in the measured response relative to a control, in per cent. As a reminder, the IC50 is the concentration needed to halve the response being measured. Regarding `CC[C@H](C)[C@H](NC(=O)[C@H](C)NC(=O)[C@H](CCC(N)=O)NC(=O)[C@@H](CS)NC(=O)[C@H](Cc1ccccc1)NC(=O)[C@H](C)NC(=O)[C@@H]1CCCN1C(=O)[C@@H](N)CC(C)C)C(=O)NCC(=O)N[C@@H](Cc1c[nH]c2ccccc12)C(=O)NCC(=O)N[C@@H](CC(=O)O)C(=O)N1CCC[C@H]1C(=O)N[C@H](C(=O)N[C@H](C(=O)N[C@@H](Cc1cnc[nH]1)C(=O)N[C@@H](Cc1c[nH]c2ccccc12)C(=O)N[C@@H](CO)C(=O)O)[C@@H](C)O)[C@@H](C)CC`, the inhibition result (in test [1]; with HeLa; in test [3]; in [5]) was “Dose-dependent effect” in each case. Besides, the 50% inhibitory concentration (IC50) was 194 µM in test [1], 370 µM in test [2], 46 µM in [3] and 71.4 µM in [5]. In addition, the Activity in [4] and in [6] was 15.6 µM throughout.

For the compound `CC(C)C[C@H](NC(=O)[C@H](CC(=O)O)NC(=O)[C@H](CCCCN)NC(=O)[C@@H](NC(=O)[C@H](CC(C)C)NC(=O)[C@H](CCCCN)NC(=O)[C@@H]1CCCN1C(=O)CNC(=O)[C@H](C)NC(=O)CNC(=O)[C@H](CS)NC(=O)[C@H](CCCNC(=N)N)NC(=O)[C@H](Cc1cnc[nH]1)NC(=O)[C@H](Cc1ccccc1)NC(=O)[C@@H]1CCCN1C(=O)[C@H](Cc1ccccc1)NC(=O)[C@@H](N)CCCNC(=N)N)[C@H](C)O)C(=O)N[C@@H](CCC(=O)O)C(=O)O`, the inhibition entry is “Dose-dependent effect” with HeLa and 56.3% in test [7]. The compound further gave an IC50 in [2] of 530 µM.

In the case of `CC[C@H](C)[C@H](NC(=O)[C@H](CS)NC(=O)[C@@H](NC(=O)[C@H](C)NC(=O)[C@H](CS)NC(=O)[C@@H]1CCCN1C(=O)[C@@H](NC(=O)CNC(=O)[C@H](Cc1c[nH]c2ccccc12)NC(=O)[C@H](CCC(=O)O)NC(=O)[C@H](CO)NC(=O)[C@H](CC(C)C)NC(=O)[C@H](CCC(=O)O)NC(=O)[C@@H](NC(=O)[C@@H](NC(=O)[C@@H](NC(=O)[C@@H](N)CC(=O)O)[C@@H](C)O)C(C)C)C(C)C)C(C)C)[C@@H](C)O)C(=O)N[C@@H](CC(C)C)C(=O)O` (H-DTVVELSEWGVPCATCIL-OH), the inhibition entry (in test [1]; with HeLa; in test [3]; in test [5]) was “Dose-dependent effect” in each case. Besides, the IC50 in [1] was determined as 463 µM; in [2] it was 429 µM; in test [3], 39.9 µM; in test [5] it was 24.1 µM. Besides, the Activity in test [4] turned out to be 31.2 µM; in [6] it was 7.8 µM.

The Kd is the constant that tells how readily two partners part at equilibrium. Lower therefore signals higher affinity. Take `CC(C)C[C@H](NC(=O)[C@H](CC(C)C)NC(=O)[C@@H](NC(=O)[C@@H](NC(=O)[C@H](CC(N)=O)NC(=O)CNC(=O)[C@H](CCCNC(=N)N)NC(=O)[C@H](CC(=O)O)NC(=O)[C@H](Cc1c[nH]c2ccccc12)NC(=O)[C@@H](NC(=O)[C@H](CCCCN)NC(=O)[C@H](CCC(=O)O)NC(=O)CNC(=O)[C@@H](N)[C@@H](C)O)C(C)C)C(C)C)[C@@H](C)O)C(=O)N[C@@H](CS)C(=O)N[C@@H](CC(=O)O)C(=O)N[C@@H](CS)C(=O)N1CCC[C@H]1C(=O)O` (H-TGEKVWDRGNVTLLCDCP-OH): the inhibition entry is “Dose-dependent effect” in test [1]; “Dose-dependent effect” with HeLa; “Dose-dependent effect” in test [3]; 52.9% in [7]; “Dose-dependent effect” in [5]. In addition, the IC50 in [1] worked out at 484 µM; in [2], 440 µM; in test [3] it was 162 µM; in [5] it was 209 µM. For the same compound, the Kd in test [8] was found to be 33.3 µM; in test [9], 25.2 µM. For the same compound, the values for the Activity in [4] and in test [6] were 62.5 µM and 31.2 µM, respectively.

With `CC[C@H](C)[C@H](NC(=O)[C@H](CS)NC(=O)[C@@H](NC(=O)[C@H](C)NC(=O)[C@H](CS)NC(=O)[C@@H]1CCCN1C(=O)[C@@H](NC(=O)CNC(=O)[C@H](Cc1c[nH]c2ccccc12)NC(=O)[C@H](CCC(=O)O)NC(=O)[C@H](CO)NC(=O)[C@H](CC(C)C)NC(=O)[C@H](CCC(=O)O)NC(=O)[C@@H](N)C(C)C)C(C)C)[C@@H](C)O)C(=O)N[C@@H](CC(C)C)C(=O)N[C@@H](CC(=O)O)C(=O)N[C@@H](CCCNC(=N)N)C(=O)N[C@@H](CCCNC(=N)N)C(=O)O` (H-VELSEWGVPCATCILDRR-OH), the inhibition result (in [1]; with HeLa; in test [3]; in test [5]) was “Dose-dependent effect” each time. Besides, the IC50 was found to be 140 µM in test [1], 331 µM in test [2], 58.6 µM in test [3] and 20.1 µM in [5]. Also, the Activity in test [4] and in [6] was 7.8 µM in each case.

Turning to `C[C@@H]1[C@H](O)[C@@H](C)/C=C/C=C/C=C/C=C/C=C/C=C/C=C/[C@H](O[C@@H]2O[C@H](C)[C@@H](O)[C@H](N)[C@@H]2O)C[C@@H]2O[C@](O)(C[C@@H](O)C[C@@H](O)[C@H](O)CC[C@@H](O)C[C@@H](O)CC(=O)O[C@H]1C)C[C@H](O)[C@H]2C(=O)O` [AMPHOTERICIN B], the IC50 was found to be 0.136 µM in test [1] and 0.175 µM in test [3].

Take H-FCQAIGWGDPITHWSHGQ-OH: the inhibition result (in test [1]; in the test with HeLa; in [3]; in [5]) was “Dose-dependent effect” each time. In addition, the IC50 in test [1] is 126 µM; in [2], 348 µM; in test [3], 70.1 µM; in [5] it was 111 µM. In addition, the Activity was 15.6 µM in [4] and 7.8 µM in [6].

Turning to H-GRPDGFIHVQGHLQEVDA-OH, the Kd in test [8] was 20 µM; in test [9], 17.6 µM. Further, the inhibition in [7] was found to be 17.9%.

In the case of H-HGQNRWPLSCPQYVYGSV-OH, in the test on HeLa, half-maximal inhibition (IC50) required 304 µM and the inhibition result was “Dose-dependent effect”.

On to H-LQEVDAGNFIPPPRWLLL-OH, for which the inhibition entry (in test [1]; in the test with HeLa; in test [3]; in test [5]) was “Dose-dependent effect” in each case. In addition, the IC50 in [1] came out at 295 µM; in test [2], 687 µM; in test [3], 37.5 µM; in test [5], 60.8 µM. Besides, the Activity in test [4] is 15.6 µM; in test [6], 7.8 µM.

For H-LVRRRSELMGRRNPVCPG-OH, the results for the inhibition result (with HeLa; in test [7]) were “Dose-dependent effect” and 46%, respectively. The same compound registered an IC50 in test [2] of 538 µM. Besides, the dissociation constant Kd in test [8] is 39.6 µM; in test [9], 22.4 µM.

On to H-PITHWSHGQNRWPLSCPQ-OH, for which the inhibition result with HeLa was “Dose-dependent effect”. Also, in test [2], the IC50 came out at 509 µM.

Take H-SDRDTVVELSEWGVPCAT-OH: the inhibition entry in test [1] is “Dose-dependent effect”; in the test on HeLa, “Dose-dependent effect”; in test [3] it was “Dose-dependent effect”; in test [7], 59%; in [5] it was “Dose-dependent effect”. For the same compound, the IC50 in test [1] came out at 506 µM; in [2], 141 µM; in [3] it was 48.8 µM; in [5] it was 43.7 µM. The Kd in [8] came to 63.6 µM; in test [9], 58.6 µM. The Activity amounted to 62.5 µM in test [4] and 31.2 µM in test [6].

Turning to H-SWFASTGGRDSKIDVWSL-OH, the inhibition entry in test [1], in test [3] and in test [5] was “Dose-dependent effect” in each case. Further, the IC50 in test [1] turned out to be 411 µM; in test [3] it was 237 µM; in test [5], 119 µM. The Activity was 7.8 µM in test [4] and 62.5 µM in test [6].

Regarding H-WVNQLAVLGLPAVDAAVA-OH, the inhibition result (in [1]; with HeLa; in test [3]; in test [5]) was “Dose-dependent effect” throughout. The results for the IC50 in test [1] and in test [2] were 94.7 µM and 333 µM, respectively. The Activity in test [4] is 15.6 µM; in test [6], 7.8 µM.

The record behind these values is ChEMBL document CHEMBL1212937, “Effect of synthetic peptides belonging to E2 envelope protein of GB virus C on human immunodeficiency virus type 1 infection” (J Med Chem, 2010).
